Row | melting point | SMILES
1 | 136 to 138 °C | [N-]=[N+]=NCCc1cccc2[nH]cc(S(=O)(=O)c3cccc(F)c3)c12
2 | 175 to 179 °C | CCN1C(=O)C2CC(c3ccc([N+](=O)[O-])cc3)(C2)C1=O
3 | 191 to 192 °C | C=C(C)C(C)n1c(=O)c(C(C)C)cc2c3c(cc(C)c21)C(C)C(C)(CI)O3 (centres undefined)
4 | 102 to 106 °C | CC(C)OC(=O)c1cc(-n2c(=O)[nH]c(C(F)(F)F)c(F)c2=O)c(F)cc1Cl
5 | 194 to 196 °C | CCCc1nc2c(N)nc3ccc(-c4ccccc4CO)cc3c2s1
6 | 104 to 105 °C | CCc1ccccc1CC1CNC(=O)O1 (centres undefined)
7 | 204 to 205 °C | O=C(c1ccc(O)cc1)c1sc2ccccc2c1-c1ccccc1
8 | 269 to 271 °C | CCc1[nH]c(=O)[nH]c1C(=O)c1ccc(C#N)cc1
9 | 303 to 306 °C | O=c1[nH]c2cc(Cl)ccc2c(O)c1-c1cccc(Oc2ccccc2)c1
10 | 135 to 137 °C | O=C1Nc2cccnc2N(C(=O)NCCN2CCCC(CN3CCCCCC3)C2)c2ccccc21 (centres undefined)
11 | 189 to 191 °C | CC(C(=O)O)c1ccc2c(c1)C(=O)Cc1cc(N)ccc1S2 (centres undefined)
12 | 107 to 108 °C | CCCCCCCCCCCCCCCCCCS(=O)c1cc2ccccc2cc1O (centres undefined)
13 | 227 °C | CCC(=O)On1c(=O)c(=O)[nH]c2cc(C(F)(F)F)c(C#N)cc21
14 | 98 to 99 °C | CC(C)(C)OC(=O)N[C@@H](C=O)Cc1ccc(OCc2ccccc2)cc1
15 | 231 to 233 °C | CS(=O)(=O)c1ccc(OC(Cc2ccc(OCCNC(=O)c3ccc(-c4ccccn4)cc3)cc2)C(=O)O)cc1 (centres undefined)
16 | 145 to 146 °C | FC(Br)C=Cc1ncn(C(c2ccccc2)(c2ccccc2)c2ccccc2)n1 (centres undefined)
17 | 113 °C | COC(=O)NNC(=O)CCC1CCCCC1
18 | 95 to 97 °C | CCC(c1ccc(-c2ccc(Cl)cc2)cc1)N1CCNCC1 (centres undefined)
19 | 173 to 176 °C | CCCCc1nc2c(N)nc3ccccc3c2n1CCCC(C)=O
20 | 110 to 112 °C | CCOCn1cnc2c1c(=O)n(C)c(=O)n2C
21 | 99 °C | C=C(c1ccccc1)S(=O)(=O)c1ccc(C(C)(C)C)cc1
22 | 107 to 108 °C | CS(=O)(=O)OCCC1=C(CCOS(C)(=O)=O)c2ccccc2Sc2ccccc21
23 | 68 to 70 °C | CCOC(=O)Cc1ccc2c(c1)sc1cc(Cl)ccc12
24 | 54 to 65 °C | CCCCC[C@H](O)/C=C/[C@@H]1[C@H]2Cc3cccc(OC(C)=O)c3C[C@H]2C[C@H]1O
25 | 119 °C | O=C(CN1CCN(c2ccccc2)CC1)N1CCC(CNCc2ccco2)(c2cccc(C(F)(F)F)c2)CC1
26 | > 220 °C | COc1ccc(F)c2c1C(=O)c1ccncc1C2=O

Row | melting point | SMILES
27 | 88 to 90 °C | Cc1cc(-c2cc(O)c(SCc3ccccc3)c(=O)o2)cc(C)n1
28 | 122 to 125 °C | CCn1ncc(OCc2ccc([Si](C)(C)C)cc2)c(Cl)c1=O
29 | 122 °C | CC(=O)n1cc(Cn2ccnc2)c2ccccc21
30 | 225 to 226 °C | O=S(=O)(Oc1ccc(C2(c3ccc(OS(=O)(=O)c4ccccc4)cc3)c3ccccc3-c3ccccc32)cc1)c1ccccc1
31 | 212 °C | Cc1ccc(C)c2c1C(=O)N(c1ccc(F)cc1F)C2=O
32 | 182 to 184 °C | CN1C(=O)C(NC(=O)CCc2ccc(Cl)cc2Cl)CC(=O)c2ccccc21 (centres undefined)
33 | 143 to 146 °C | CCOC(=O)C(=NOC)c1noc(N)n1
34 | 89 to 90 °C | N#CC1c2ccccc2CCc2ccccc21
35 | 229 to 232 °C | O=C(Nc1cccc2c(=O)cc(-c3nnn[nH]3)oc12)c1ccc2c(c1)CC(COCc1ccc(F)cc1)O2 (centres undefined)
36 | 78 to 80 °C | CS(=O)(=O)N(C(=O)OCc1ccccc1)c1cc(OC[C@@H]2CO2)ccc1OCc1ccccc1
37 | 92 to 93 °C | Cc1cc(CC(=O)c2ccc(F)cc2)on1
38 | 62 °C | CCCCC#CC(C)(O)c1ccc(-c2ccc(F)cc2)cc1 (centres undefined)
39 | 140 °C | Cn1c([N+](=O)[O-])cnc1COc1ccc(SC#N)cc1
40 | 162 to 164 °C | Cc1c(NC(=O)c2ccc(OCC3CC3)cc2)ccc2cc(C(C)N3CCCC3)cnc12 (centres undefined)
41 | 116 to 140 °C | CCCCCCCCCCCCCCCCCCNC(=O)NCCCN
42 | > 280 °C | CCOc1cc2c(=O)cc(C(=O)O)[nH]c2ccc1=O
43 | 173 to 174 °C | Clc1cccc2c(CN3CCN(c4ccc5c(c4)OCO5)CC3)n[nH]c12
44 | 274 to 275 °C | O=S(=O)(O)c1cccc(Cl)n1
45 | 74 °C | Cc1cc(C)c(C(=O)Oc2ccccc2)c(O)c1C
46 | 182 °C | Cc1nc(CO)c(CO)[nH]1
47 | 125 °C | COC(=O)c1c(OC)c(OC)c2oc(C)cc(=O)c2c1OC
48 | 155 to 157 °C | CC(C)c1ccccc1N=C1N=CC(C)(C)CS1
49 | 48.5 to 50.5 °C | N#CS/C=C\C(=O)OCc1ccccc1
50 | 285 °C | O=C(Nc1ccccc1)Nc1ccc2ccc(-c3cccc(Br)c3)nc2n1
51 | 192 to 194 °C | COc1cc2c(cc1C=O)C(C)(C)C(=O)N2C
52 | 185 to 186 °C | CCCc1c(O)ccc2[nH]c(C(=O)OCC)cc12

Row | melting point | SMILES
53 | 147 to 150 °C | CC(C)(C)C(=O)NS(=O)(=O)c1cccc(N)c1
54 | 215 °C | CC(C)Cc1nc2ccc(C(c3cccc(Cl)c3)n3ccnc3)cc2[nH]c1=O (centres undefined)
55 | 148 to 150 °C | CC(=CCOc1ccc(OC(C)(C)C(=O)O)cc1)c1ccc(-c2ccccc2)cc1
56 | 219 to 220 °C | O=C(OC(Cn1ccnc1)c1ccc2ccccc2c1)c1ccccc1 (centres undefined)
57 | 135 to 137 °C | Nc1cccc(C23CC2C(=O)NC3=O)c1 (centres undefined)
58 | 272 to 275 °C | O=C(Nc1ccc(C(F)(F)F)cc1)c1ccccc1SSc1ccccc1C(=O)Nc1ccc(C(F)(F)F)cc1
59 | 77 to 79 °C | CCOC(=O)c1ccc(N)c(CNC(C)(C)C)c1
60 | 187 to 190 °C | CC(C#N)(CNC(=O)c1nn(C2CCCCO2)cc1NC(=O)c1ccccn1)Cc1ccccc1 (centres undefined)
61 | 133 to 134 °C | COC(=O)c1ccc(OCCc2nc(-c3ccccc3)oc2C)cc1O
62 | 91 to 93 °C | CC(C)(C)OC(=O)N1C[C@@H](O)[C@H](n2ccnn2)C1 (relative stereo)
63 | 132 to 133 °C | COc1ccc(-c2nc(Cl)n(C)c2-c2ccc(OC)cc2)cc1
64 | 104 to 105 °C | C#CCN1C(=O)c2cccc3c2N(CC3)c2ccccc21
65 | 208 to 209 °C | CN(C)C(=O)c1nn(-c2cccc(F)c2)c(=O)c2c1c1ccc(Cl)cc1n2C
66 | 171 to 174 °C | Cc1cc(-c2nncc3c(C(C)(C)C)c(OCc4ncnn4C)nn23)no1
67 | 55.5 to 57 °C | NOc1ccc2c(c1)CCCC2=O
68 | 134 to 136 °C | CCOC(=O)[C@@](C)(C#N)[C@@H](c1ccccc1OC)c1cccc2ccccc12
69 | 198 to 199 °C | CCN(CC)c1ccc(NC(=O)c2ccc(-c3[nH]nc4c3C(=O)c3c(NC(=O)NN5CCOCC5)cccc3-4)s2)cc1
70 | > 260 °C | Oc1ccc(C(=C2CCNCC2)c2ccccc2)cc1
71 | 176 to 178 °C | Brc1cccc2c1Sc1c(Br)cccc1S2
72 | 135 to 136 °C | CS(=O)(=O)NC1CCN(Cc2ccccc2)CC1
73 | 74 to 75 °C | Cc1cccc(C)c1N1CC(C)N(c2c(C)cccc2C)C1=NC(=O)OCc1ccccc1 (centres undefined)
74 | 146 to 148 °C | Cc1ccc(C2CCN(C[C@H](O)COc3cccc4oc(S(=O)(=O)N(C)C)cc34)CC2)cc1C
75 | 125 to 128 °C | Nc1cc(NC(=O)CCCCl)c(Cl)cc1Cl
76 | > 320 °C | O=C(Nc1ccncc1)c1cc2ccnc(Cl)c2[nH]1
77 | 62 to 64 °C | COc1ccc(-c2ccccc2)cc1OC1CCCC1
78 | 84 to 87 °C | O=c1oc(-c2cccc(OC(F)F)c2)nc2ccccc12

Row | melting point | SMILES
79 | 116 to 119 °C | CC(C)(C)c1cc2c(c(C(C)(C)C)c1)OC(=O)C2c1ccccc1 (centres undefined)
80 | 125 to 127 °C | C=CCC1C(=O)CCCC1=O
81 | 115 to 116 °C | CC(=O)SCSc1cn(C(c2ccccc2)(c2ccccc2)c2ccccc2)nn1
82 | 173 °C | Cc1c(Sc2ccc(Cl)cc2)c2c(N3CCN(C(=O)OC(C)(C)C)CC3)cccc2n1CC(=O)O
83 | 80 °C | COC(=O)C1Cc2c(C)ccc(C)c2N1 (centres undefined)
84 | 211 to 214 °C | COc1c(N2C[C@@H](N)[C@@H](C3CC3)C2)c(F)cc2c(=O)c(C(=O)O)cn([C@@H]3C[C@@H]3F)c12
85 | 132 to 133 °C | N#Cc1cn(CCl)cc1-c1cccc(Cl)c1Cl
86 | 155 to 156 °C | CCOC(=O)c1nc2n(c(=O)c1O)CCN2CCO
87 | > 300 °C | O=C(Nc1cccc(Br)c1)Nc1cc(NC(=O)Nc2cccc(Br)c2)cc(C(=O)O)c1
88 | 56 to 58 °C | O=C(O)CCCCSc1nc2c(F)c(F)cc(F)c2s1
89 | 89 to 90 °C | CC(O)c1cccc2cccc(O)c12 (centres undefined)
90 | 163 to 165 °C | CN(C)CCNC(=O)c1cc(Cl)c(N)cc1O
91 | 169 to 171 °C | O=[N+]([O-])c1ccc(-c2nc(-c3cccs3)no2)cc1
92 | 187 to 189 °C | N#Cc1nc(Cl)c(Cl)[nH]1
93 | 172 to 174 °C | COC(=O)c1ccc(COc2ccc3cc(-c4ccc(-c5ccccc5)n4Cc4ccc(C(F)(F)F)cc4)ccc3c2)c(C(=O)OC)c1
94 | 204 to 206 °C | N#Cc1c(C(=O)NC2CC2)cnn1-c1ccc(Cl)cc1
95 | 162 to 163 °C | CCOC1CCC(=O)N1S(=O)(=O)c1ccc(O)cc1 (centres undefined)
96 | 220 °C | COc1nc2ccccc2c(=O)n1O
97 | 92.5 to 93 °C | CC1(C)C(=O)CC(=O)C(C)(C)C1=O
98 | 138 to 140 °C | CC(C)c1ccc(Nc2cccc3c2C(=O)N(C2CCC(=O)NC2=O)C3=O)cc1 (centres undefined)
99 | 46 to 47 °C | NC(=O)CNC(=O)c1cccc(-c2cccc3cc(Cc4cc(F)cc(Cl)c4)sc23)c1F
100 | 132 to 134 °C | O=C1c2ccccc2COc2ccc(CC=NO)cc21
101 | 38 to 42 °C | CCCc1nc(C)cn1-c1cc(F)ccc1N

Row | SMILES | melting point
102 | CN1C(=O)CN(NC(=O)CN)C(c2ccccc2)c2cc(Cl)ccc21 (centres undefined) | 173 to 175 °C
103 | CC1(C)COP(N(CCCCCCN(C2CC(C)(C)NC(C)(C)C2)P2OCC(C)(C)CO2)C2CC(C)(C)NC(C)(C)C2)OC1 | 103 °C
104 | CN1Cc2c(C(N)=S)ncn2-c2cccc(Cl)c2C1=O | 300 to 302 °C
